Source: patent US10124035B2, “DISC-1 pathway activators in the control of neurogenesis” (Massachusetts Institute of Technology, priority 2008, dated 2018)
Entries after “also recorded” stand apart in the source; their conditions may differ.

Tests used:
[1] = system: DISC1 knockdown AHP cells; experiment: BrdU incorporation in DISC1 knockdown progenitor cells; type: cell-based; conditions: SB-216763 5 μM for 16 hours, 10 μM BrdU for 2 hours
Method: Primary neural stem cells from E14 brains were infected with control or DISC1 shRNA lentiviruses. 48 hours after to transduction, cells were treated with vehicle or SB-216763 (5 μM) for 16 hours and then pulsed with 10 μM BrdU for 2 hours. Shown is percentage of GFP and BrdU double positive cells to total GFP positive cells (n=3, p<0.05). b. […] 1.5 μg of vector or WT-DISC1 was cotransfected with 0.5 μg control or DISC1 shRNA-2, 0.1 μg TCF reporter, and 10 ng pRL-TK vector into 293T cells. 48 hours after transfection, Wnt3a conditional medium with vehicle, SB-216763, or AR-A104418 was added for another 16 hours.
If DISC1 functions to inhibit GSK3β activity, the negative effects of DISC1 silencing on proliferation should be alleviated by GSK3β loss-of-function. We examined the consequence of treating DISC1 knockdown AHP cells with SB-216763, a specific chemical inhibitor of GSK3β. […] These experiments further support a role of DISC1 in controlling cell proliferation via modulation of GSK3β.

[2] = previously reported (Selenica et al. 2007); cited from earlier work
AHPs = experiment: Immunoblot of β-catenin and cyclin D1 in transduced AHPs; type: cell-based
From the text: • Mice. Swiss Webster pregnant female mice were purchased from Taconic (Hudson, N.Y.). • Cell Culture. AHPs were kindly provided by Dr. Gage (Lie, D. C. et al. Wnt signaling to regulates adult hippocampal neurogenesis. Nature 437, 1370-5 (2005)) and cultured under conditions described previously (Palmer, T. D., Takahashi, J. & Gage, F. H. The adult rat hippocampus contains primordial neural stem cells. Mol Cell Neurosci 8, 389-404 (1997)). Primary neural progenitors were isolated from E14 mouse embryos and cultured as described previously (Sanada, K. & Tsai, L. H. G protein betagamma subunits and AGS3 control spindle orientation and asymmetric cell fate of cerebral cortical progenitors. Cell 122, 119-31 (2005)). N2a and 293T cells were cultured in DMEM medium containing 10% FBS, L-glutamine, and penicillin/streptomycin. Wnt3a expressing L cells and untransfected L cells were obtained from ATCC (Manassas, Va.). Wnt3a conditional medium was produced according to the ATCC protocol. To induce AHP differentiation, FGF2 was removed from the culture medium and 1 μM retinoic acid/1% FBS was added to the medium for 4 days. • Reagents. Recombinant Wnt3a protein was obtained from Chemicon (Rosemont, Ill.). FGF2 was obtained from PeproTech (Rocky Hill, N.J.). Recombinant GST-GSK3β was obtained from Active Motif (Carlsbad, Calif.). Recombinant GST-β-catenin and GST-axin were obtained from Millipore (Billerica, Mass.). The GSK313 inhibitor, SB-216763, AR-A104418 and His-GSK3β, were obtained from Sigma-Aldrich (Sigma-Aldrich, St. Louis, Mo.). L803-MTS was obtained from Calbiochem (San Diego, Calif.). GST-AKT1 was obtained from Cell Signaling (Beverly, Mass.). GST-CASK-1 (CASK fragment from 316-415aa), GST-CASK-2 (CASK fragment from 777-974aa), and GST-p25 proteins were kindly provided by Dr. B. A. Samuels. Mouse DISC1 peptidel (40-78aa: GYMRSTAGSG IGFLSPAVGMPHPSSAG LTGQQSQHSQS; SEQ ID NO: 1) and Mouse DISC1 peptide 2 (195-238aa, […] GERGEAEGCLPSREAE; SEQ ID NO: 2) were synthesized by Chi Scientific (Maynard, Mass.). • Antibodies. […]

[3] = system: DISC1 shRNA infected mice; experiment: Elevated plus-maze; type: in vivo, mouse; conditions: lentivirus in adult dentate gyrus
Method: Alterations in neurogenesis are implicated in the development of depression and other abnormal behaviors. To examine the behavioral consequences of disrupting the DICS1/GSK3β pathway, we silenced DISC1 expression in the adult dentate gyms and evaluated behavioral consequences. Four weeks after the injection of control or DISC1 shRNA-1 lentivirus, mice were treated with vehicle or SB-216763 (2 mg/kg i.p.) every other day for 10 days. […] DISC1 shRNA injected mice traveled a greater distance and spent more time moving in a novel open field than control mice (FIG. 17A). These behaviors were normalized by SB-216763 treatment. We further tested whether DISC1 loss-of-function had consequences on depression-like behavior in the forced swim test. […] Importantly, swimming velocity was unchanged. […] Thus, increased GSK3β activity caused by DISC1 loss-of-function is associated with schizophrenia- and depression-like behaviors.

Compound	cell proliferation by BrdU incorporation in DISC1 knockdown cells [1]	crossing of the blood-brain barrier [2]	reduction of Cyclin D1 levels (AHPs) [%]	β-catenin levels (AHPs)	anxiety in elevated plus-maze [3]
Cn1cc(C2=C(c3ccc(Cl)cc3Cl)C(=O)NC2=O)c2ccccc21 [SB-216763]	restored the cell proliferation impaired by DISC1 knockdown; also recorded: can rescue DISC-1 knockdown-induced proliferation defects	cross the blood-brain barrier	–	–	–
DISC1 shRNA-1: shRNA targeting rat and mouse DISC1, SEQ ID NO:4, in pLentiLox 3.7 vector (GGCAAACACTGTGAAGTGC)	–	–	50	35 % to control	did not display increased anxiety
